What follows are molecules tested against T1, mouse ENT-1 transporter (Mus musculus, UniProt Q9JIM1) (assay: ENT1 adenosine uptake inhibition ([3H]-adenosine transport activity)). Settings: stable cells expressing mouse ENT-1; [2,8-3H]-adenosine 6 nM, 20 min.
T1 construct: expressed in transfected cells
T1 sequence (Q9JIM1 1-460): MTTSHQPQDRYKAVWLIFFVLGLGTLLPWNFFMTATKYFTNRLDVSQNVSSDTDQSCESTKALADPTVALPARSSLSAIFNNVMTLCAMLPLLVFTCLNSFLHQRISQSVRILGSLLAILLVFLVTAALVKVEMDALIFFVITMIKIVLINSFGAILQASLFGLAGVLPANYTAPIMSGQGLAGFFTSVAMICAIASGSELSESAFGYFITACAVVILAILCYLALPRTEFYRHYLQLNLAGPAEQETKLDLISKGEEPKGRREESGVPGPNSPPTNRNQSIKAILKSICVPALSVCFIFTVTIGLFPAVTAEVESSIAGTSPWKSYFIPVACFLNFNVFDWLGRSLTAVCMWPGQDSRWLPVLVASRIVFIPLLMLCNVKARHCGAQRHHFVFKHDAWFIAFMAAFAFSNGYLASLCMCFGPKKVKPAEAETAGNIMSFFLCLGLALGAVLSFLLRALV
Type: cell-based
Experimental: To measure adenosine transport activity of ENT-1 mammalian cells, stable cells expressing the mouse ENT-1 transporter were plated on day 1 in 96-well culture plates at the density of 60,000 cells/well, in complete DMEM/F12 medium supplemented with glutamax, 10% FBS and 10 μg/ml puromycin. On day 2, the medium was aspirated and the cells were washed twice with uptake buffer (10 mM Hepes-Tris, pH 7.4 containing 150 mM NaCl, 1 mM CaCl2, 2.5 mM KCl, 2.5 mM MgSO4, 10 mM D-glucose) (UB). For inhibition experiments, cells were then incubated at RT with various concentrations of compounds with 1% DMSO final. Non-specific uptake was defined in the presence of 10 μM S-(4-Nitrobenzyl)-6-thioinosine (NBTI, Sigma Cat #N2255).
A solution containing [2,8-^3H]-adenosine 6 nM (40 Ci/mmol, American Radiolabeled chemicals Inc, Cat #ART 0287A) was then immediately added to the wells. The plates were then incubated for 20 min with gentle shaking and the reaction was stopped by aspiration of the mixture and washing (three times) with ice-cold UB. The cells were lysed by the addition of scintillation liquid, shaken 3 hours and the radioactivity in the cells was estimated using a microplates scintillation counter (TopCount NXT, Packard).

| Compound | IC50 [nM] |
| --- | --- |
| COc1cncc(N2C(=O)C(C)(C)c3ccc(-c4cnc(C)nc4)cc32)n1 [Example 1, 1-(6-Methoxypyrazin-2-yl)-3,3-dimethyl-6-(2-methylpyrimidin-5-yl)indolin-2-one] | 73 |
| COc1cncc(N2C(=O)C(C)(C)c3ccc(-c4cnc(C)nc4)cc32)c1 [Example 2, 1-(5-Methoxypyridin-3-yl)-3,3-dimethyl-6-(2-methylpyrimidin-5-yl)indolin-2-one] | 438 |
| COc1cc(N2C(=O)C(C)(C)c3ccc(-c4cnc(C)nc4)cc32)cnc1C [Example 3, 1-(5-Methoxy-6-methylpyridin-3-yl)-3,3-dimethyl-6-(2-methylpyrimidin-5-yl)indolin-2-one] | 242 |
| COc1cc(N2C(=O)C(C)(C)c3ccc(-c4cnc(C)nc4)cc32)nc(OC)n1 [Example 4, 1-(2,6-Dimethoxypyrimidin-4-yl)-3,3-dimethyl-6-(2-methylpyrimidin-5-yl)indolin-2-one] | 110 |
| CCOc1cncc(N2C(=O)C(C)(C)c3ccc(-c4cnc(C)nc4)cc32)c1 [Example 5, 1-(5-Ethoxypyridin-3-yl)-3,3-dimethyl-6-(2-methylpyrimidin-5-yl)indolin-2-one] | 64.3 |
| COc1cccc(N2C(=O)C(C)(C)c3ccc(-c4cnc(C)nc4)cc32)c1 [Example 6, 1-(3-Methoxyphenyl)-3,3-dimethyl-6-(2-methylpyrimidin-5-yl)indolin-2-one] | 289 |
| Cc1ncc(-c2ccc3c(c2)N(c2cncc(OC(C)C)c2)C(=O)C3(C)C)cn1 [Example 7, 1-(5-Isopropoxypyridin-3-yl)-3,3-dimethyl-6-(2-methylpyrimidin-5-yl)indolin-2-one] | 183 |
| Cc1ncc(-c2ccc3c(c2)N(c2cnc4c(c2)OCCN4)C(=O)C3(C)C)cn1 [Example 8, 1-(3,4-Dihydro-2H-pyrido[3,2-b][1,4]oxazin-7-yl)-3,3-dimethyl-6-(2-methylpyrimidin-5-yl)indolin-2-one] | 951 |
| COc1cc(N2C(=O)C(C)(C)c3ccc(-c4cnc(C)nc4)cc32)cnc1Cl [Example 9, 1-(6-Chloro-5-methoxypyridin-3-yl)-3,3-dimethyl-6-(2-methylpyrimidin-5-yl)indolin-2-one] | 154 |
| COc1cc(N2C(=O)C(C)(C)c3ccc(-c4cnc(C)nc4)cc32)cnc1C1CC1 [Example 10, 1-(6-Cyclopropyl-5-methoxypyridin-3-yl)-3,3-dimethyl-6-(2-methylpyrimidin-5-yl)indolin-2-one] | 139 |
| COc1cnc(N2C(=O)C(C)(C)c3ccc(-c4cnc(C)nc4)cc32)cn1 [Example 11, 1-(5-Methoxypyrazin-2-yl)-3,3-dimethyl-6-(2-methylpyrimidin-5-yl)indolin-2-one] | 272 |
| Cc1ncc(-c2ccc3c(c2)N(c2ccc(O)nn2)C(=O)C3(C)C)cn1 [Example 13, 1-(6-Hydroxypyridazin-3-yl)-3,3-dimethyl-6-(2-methylpyrimidin-5-yl)indolin-2-one] | 615 |
| Cc1ncc(-c2ccc3c(c2)N(c2ccc(OC(F)(F)F)cn2)C(=O)C3(C)C)cn1 [Example 14, 3,3-Dimethyl-6-(2-methylpyrimidin-5-yl)-1-(5-(trifluoromethoxy)pyridin-2-yl)indolin-2-one] | 118 |
| COc1ncc(N2C(=O)C(C)(C)c3ccc(-c4cnc(C)nc4)cc32)cn1 [Example 15, 1-(2-Methoxypyrimidin-5-yl)-3,3-dimethyl-6-(2-methylpyrimidin-5-yl)indolin-2-one] | 843 |
| Cc1ncc(-c2ccc3c(c2)N(c2ccc(OCC(F)(F)F)nc2)C(=O)C3(C)C)cn1 [Example 16, 3,3-Dimethyl-6-(2-methylpyrimidin-5-yl)-1-(6-(2,2,2-trifluoroethoxy)pyridin-3-yl)indolin-2-one] | 811 |
| Cc1ncc(-c2ccc3c(c2)N(c2cnc(OC4COC4)nc2)C(=O)C3(C)C)cn1 [Example 17, 3,3-Dimethyl-6-(2-methylpyrimidin-5-yl)-1-(2-(oxetan-3-yloxy)pyrimidin-5-yl)indolin-2-one] | 823 |
| Cc1ncc(-c2ccc3c(c2)N(c2ccc4onc(C)c4c2)C(=O)C3(C)C)cn1 [Example 18, 3,3-Dimethyl-1-(3-methylbenzo[d]isoxazol-5-yl)-6-(2-methylpyrimidin-5-yl)indolin-2-one] | 50.9 |
| COc1cncc(N2C(=O)C3(CCC3)c3ccc(-c4cnc(C)nc4)cc32)c1 [Example 19, 1′-(5-Methoxypyridin-3-yl)-6′-(2-methylpyrimidin-5-yl)spiro[cyclobutane-1,3′-indolin]-2′-one] | 785 |
| COc1ccc(N2C(=O)C3(CCC3)c3ccc(-c4cnc(C)nc4)cc32)nn1 [Example 20, 1′-(6-Methoxypyridazin-3-yl)-6′-(2-methylpyrimidin-5-yl)spiro[cyclobutane-1,3′-indolin]-2′-one] | 130 |

The molecules below were run on L-687,414-induced hyperlocomotion (assay: L-687,414-induced hyperlocomotion). Settings: mice; dose 30 mg/kg ip, 15 min before s.c. 50 mg/kg L-687,414.
Type: in vivo, mouse
Experimental: The described compounds of formula I reduce L-687,414-induced hyperlocomotion. This was assessed by using a computerized Digiscan 16 Animal Activity Monitoring System (Omnitech Electronics, Columbus, Ohio) to quantify locomotor activity. Animals were kept under a 12 h light/dark cycle and experiments were performed during the light period. Each activity monitoring chamber consisted of a Plexiglas box (41×41×28 cm; W×L×H) with sawdust bedding on the floor surrounded by invisible horizontal and vertical infrared sensor beams. The test boxes were divided by a Plexiglas cross providing each mouse with 20×20 cm of moving space. Cages were connected to a Digiscan Analyzer linked to a computer that constantly collected the beam status information. Records of photocell beam interruptions for individual animals were taken every 5 min over the duration of the experimental session and the sum of the first 6 periods was used as the final parameter. At least 8 mice were used in each treatment group. Compounds were administered i.p 15 min before a s.c. injection of 50 mg/kg of L-687,414. […] Horizontal activity was then recorded for a 30-min time period. The % inhibition of L-687,414-induced hyperlocomotion was calculated according to the equation: ((Veh+L−687,414 horizontal activity−drug+L−687,414 horizontal activity)/Veh+L−687,414 horizontal activity)×100 […]

| Compound | Inhibition, ip of L-687,414-induced hyperlocomotion [%] |
| --- | --- |
| COc1cncc(N2C(=O)C(C)(C)c3ccc(-c4cnc(C)nc4)cc32)c1 [Example 2, 1-(5-Methoxypyridin-3-yl)-3,3-dimethyl-6-(2-methylpyrimidin-5-yl)indolin-2-one] | 93.6 |

Each molecule was assayed on behaviors of compound-treated mice (assay: SmartCube behavioral signature similarity analysis). Settings: SmartCube; test compound at 3 mg/kg i.p.; rate of 0.70 or lower = similar.
Type: in vivo, mouse
From the text: authors described that hyperlocomotion induced by L-687,414 was inhibited by a series of known antipsychotic drugs. […] These findings predict antipsychotic activity for the present compounds, making them useful for the treatment of positive (psychosis) and negative symptoms of schizophrenia, substance abuse, alcohol and drug addiction, obsessive-compulsive disorders, cognitive impairment, bipolar disorders, mood disorders, major depression, resistant depression, anxiety disorders, Alzheimer's disease, autism, Parkinson's disease, chronic pain, borderline personality disorder, sleep disturbances, chronic fatigue syndrome, stiffness, antiinflammatory effects in arthritis and balance problems, epilepsy and neurodevelopmental disorders with co morbid epilepsy. In addition to the reversal of L-687,414 induced hyperlocomotion experiment as described above, some compounds of the present invention have been tested in SmartCube®, an automated system in which the behaviors of compound-treated mice in response to multiple challenges are captured by digital video and analyzed with computer algorithms (Roberds et al., Frontiers in Neuroscience, 2011, Vol. 5, Art. 103, 1-4; Vadim Alexandrov, Dani Brunner, Taleen Hanania, Emer Leahy Eur. J. Pharmacol. 2015, 750, 82-99). In this way, the neuro-pharmacological effects of a test compound can be predicted by similarity to major classes of compounds, such as antipsychotics, anxiolytics and antidepressants.
SmartCube® was used to compare the behavioral signature of a test compound to a database of behavioral signatures obtained from a large set of clinically approved reference drugs, grouped per indications. In this way, the neuro-pharmacological effects of a test compound can be predicted by similarity to major classes of compounds, such as antipsychotics, anxiolytics and antidepressants. This approach is ideally suited to screen collections of existing drugs or drug candidates with previously unknown neuropharmacology, which could expedite the development of new and unexpected treatments for psychiatric disorders.
Some compounds of the present invention were injected i.p. at different doses 15 minutes before the test. At least 8 mice were used in each treatment group. Digital videos of the subjects were processed with computer vision algorithms to extract over 2000 dependent measures including frequency and duration of many different behavioral states. The results of the classifications are presented as bar charts for each compound and dose (mg/kg), the Y-axis indicates the relative probability that the test compound will show efficacy in the specific CNS indication.
Compounds of the present invention show similar signatures to those of atypical antipsychotics. An independent analysis was performed on the unclassified data to determine the similarity of the example compounds to active doses of known atypical antipsychotics. For this analysis, we use discrimination rate as the measure of separability between the two drugs, i.e. one drug's “distinguishability” from another. A rate equal to 50% (or 0.5) corresponds to zero distinguishability. […] In most cases, the example compounds show a similarity to risperidone, clozapine and olanzapine with a discrimination rate of ≤0.70.

| Compound | discrimination rate vs Clozapine (1.0 mg/kg) | discrimination rate vs Olanzapine (0.25 mg/kg) | discrimination rate vs Risperidone (0.06 mg/kg) |
| --- | --- | --- | --- |
| COc1cncc(N2C(=O)C(C)(C)c3ccc(-c4cnc(C)nc4)cc32)c1 [Example 2, 1-(5-Methoxypyridin-3-yl)-3,3-dimethyl-6-(2-methylpyrimidin-5-yl)indolin-2-one] | 0.58 | 0.68 | 0.51 |

Same assay, conditions: mice; result in words

| Compound | SmartCube behavioral signature classification |
| --- | --- |
| COc1cncc(N2C(=O)C(C)(C)c3ccc(-c4cnc(C)nc4)cc32)c1 [Example 2, 1-(5-Methoxypyridin-3-yl)-3,3-dimethyl-6-(2-methylpyrimidin-5-yl)indolin-2-one] | similarity to atypical antipsychotics |

Source: patent publication US10457667B2, “Indolin-2-one derivatives” (Hoffmann-La Roche Inc., priority 2015, dated 2019)
